Measured values: PubChem BioAssay (NCI)
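Assay format: 96-well plates, 48-hour exposure. TGI is the concentration that stops growth completely.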

Columns and labels:
Assay in all cases: NCI-60 cell line screen, 48 h
K-562 leukemia = tested on: K-562 leukemia
OVCAR-8 ovarian = tested on: OVCAR-8 ovarian
PC-3 prostate = tested on: PC-3 prostate
RPMI-8226 leukemia = tested on: RPMI-8226 leukemia
SK-MEL-28 melanoma = tested on: SK-MEL-28 melanoma
SK-MEL-5 melanoma = tested on: SK-MEL-5 melanoma
SNB-75 CNS = tested on: SNB-75 CNS
SW-620 colon = tested on: SW-620 colon
UACC-62 melanoma = tested on: UACC-62 melanoma
SK-OV-3 ovarian = tested on: SK-OV-3 ovarian

| Structure (SMILES) | TGI (K-562 leukemia) [µM] | TGI (OVCAR-8 ovarian) [µM] | TGI (PC-3 prostate) [µM] | TGI (RPMI-8226 leukemia) [µM] | TGI (SK-MEL-28 melanoma) [µM] | TGI (SK-MEL-5 melanoma) [µM] | TGI (SNB-75 CNS) [µM] | TGI (SW-620 colon) [µM] | TGI (UACC-62 melanoma) [µM] | TGI (SK-OV-3 ovarian) [µM] |
| --- | --- | --- | --- | --- | --- | --- | --- | --- | --- | --- |
| N#CC1C(=S)NC(c2ccccc2)=CC12CCCCC2 (configuration not stated) | > 100 | > 100 | > 100 | 54.3 | 95.5 | 90.4 | > 100 | > 100 | 42.7 |  |
| CC1(C)OC(C(=O)Nc2cc3c4ccccc4ccc3c3ccccc23)C(C(=O)N2CCCCC2)O1 (configuration not stated) | > 100 | > 100 | > 100 | > 43.2 | > 100 | > 100 | > 100 | > 100 | > 100 | > 100 |
| CC(C)NC(=O)OCc1c(COC(=O)NC(C)C)c(-c2cc[n+](COC(=O)C3CC3)cc2)n2c1CCC2 | > 100 | > 100 | > 100 | > 100 | > 100 | > 100 | > 100 | > 100 | > 100 | > 100 |
| Cc1ccc2c(c1)C(=S)N1CSCC1c1nncn1-2 (configuration not stated) | > 100 | > 100 | > 100 | > 100 | > 100 | > 100 | > 100 | > 100 | > 100 | > 100 |
| C=C(Cl)C(=CCl)CCC(Br)C(C)(C)Cl (mixture of isomers) | > 10 | > 10 | > 10 | > 10 | > 10 | > 10 | > 10 | > 10 | > 10 | > 10 |
| NC(N)=NS(=O)(=O)c1ccc(NNc2c3ccccc3nc3c(C(=O)Nc4ccc(S(=O)(=O)Nc5ncccn5)cc4)cccc23)cc1 | > 100 | > 100 | > 100 | > 100 | > 100 | > 100 | > 100 | > 100 | 48.2 |  |
| O=c1oc2ccccc2cc1-c1cc2ccccn2c1 | > 100 | > 100 | > 100 | > 100 | > 100 | > 100 | > 100 | > 100 | > 100 | > 100 |
| Nc1ccc2c(c1)C(=O)N1CCC[C@H]1C(=O)N2 | > 100 | > 100 | > 100 | > 100 | > 100 | > 100 | > 100 | > 100 | > 100 | > 100 |
| N=C(N)C1CN(CCc2c[nH]c3ccccc23)C(=O)NC1=O (configuration not stated) | > 100 | > 100 | > 100 | > 100 | > 100 | > 100 | > 100 | > 100 | > 100 | > 100 |
| CN1C(=O)c2ccccc2OC12C=Cc1c(ccc3ccccc13)O2 (configuration not stated) | > 31.5 | 17.6 | 16.8 | > 71.9 | > 67.6 | 23 | 33.1 | > 72.6 | > 47.1 | 27.4 |
| C/C=C/C(CC(O)(C(F)(F)F)C(F)(F)F)=N/NC(N)=S | > 10 | > 10 | > 10 | > 10 | > 10 | > 10 | > 10 | > 10 | > 10 | > 10 |
| Brc1ccc2[nH]cc(-c3csc(-c4c[nH]c5ccccc45)n3)c2c1 | > 20.8 | 21.2 | 10.2 | 12.1 | 15.3 | 5.64 | 23.9 | 8.23 | > 22.5 | 20.7 |
| COC(=O)c1c(O)ccc2c1c1c(n2Cc2cc(OC)cc(OC)c2)C(=O)c2ccccc2C1 | > 100 | > 100 | 49.1 | 36.2 | 60.9 | > 100 | 34.5 | > 100 | > 100 | > 100 |
| O=C1C=CC(=O)c2c1ccc1c3ccccc3n(CCCCCn3c4ccccc4c4ccc5c(c43)C(=O)C=CC5=O)c21 | 4.89 | 46.9 | 33.9 | 18.8 | 31.5 | > 86.1 | 32.9 | 26.8 | 71.8 | > 100 |
| CN=C(n1ccnc1)n1ccnc1 | > 100 | > 100 | > 100 | > 100 | > 100 | > 100 | > 100 | > 100 | > 100 | > 100 |
| c1ccc(N=C(N2CCCC2)N(CCN2CCCC2)c2ccccc2)cc1 | > 100 | > 100 | > 100 | > 100 | > 100 | 24.5 | 78 | > 100 | > 100 | > 100 |
| CCOC(=O)NC(Nc1ccc(C)cc1)(C(F)(F)F)C(F)(F)F | > 100 | > 100 | > 100 | > 100 | > 100 | > 100 | > 100 | > 100 | > 100 | > 100 |
| CN1CCc2c([nH]c3ccccc23)C1 | > 100 | > 100 | > 100 | > 100 | > 100 | > 100 | > 100 | > 100 | > 100 | > 100 |
| CN(C)c1ccc(/C=c2/c3ccccc3n3c2c2c([n+]3C)CCCC2)cc1 | 2.85 | 2.49 | 2.06 | 0.656 | 2.06 | 0.217 | 0.265 | 10.5 | 1.95 | 2.07 |
| C=CCc1cccc2cc(C(=O)NCc3ccccc3)c(=N)oc12 | > 100 | > 100 | > 100 | > 100 | > 100 | 64.4 | > 100 | > 100 | > 100 | > 100 |
| CC1=NN(c2nc(N)nc(/C(C#N)=C\c3ccc([N+](=O)[O-])s3)n2)C(C)(C)C1 | 0.355 | 0.21 | 0.429 | 0.0872 | 1.21 | 1.84 | 1.93 |  | 2.25 | 49.3 |
